# Target: human HSV DNA polymerase UL30 (Human herpesvirus 1 (strain 17) (HHV-1) (Human herpes simplex virus 1), UniProt P04293)
# Test: biochemical
# Settings: 625 pM HSV polymerase, 20 minutes at room temperature; read-out: HSV-polymerase Biochemical IC50
row,Compound,IC50
1,"Cn1nc(C(=O)NCc2ccc(C#N)cc2)c2c1C(=O)N(CC1(S(=O)(=O)NC3CC3)CC1)CC2 [Example 129, N-(4-cyanobenzyl)-6-((1-(N-cyclopropylsulfamoyl)cyclopropyl)methyl)-1-methyl-7-oxo-4,5,6,7-tetrahydro-1H-pyrazolo[3,4-c]pyridine-3-carboxamide]",213 nM
2,"Cn1nc(C(=O)NCc2ccc(C#N)cc2)c2c1C(=O)N(CC1(S(=O)(=O)NC3COC3)CC1)CC2 [Example 132, N-(4-Cyanobenzyl)-1-methyl-6-((1-(N-(oxetan-3-yl)sulfamoyl)cyclopropyl)methyl)-7-oxo-4,5,6,7-tetrahydro-1H-pyrazolo[3,4-c]pyridine-3-carboxamide]",451 nM
3,"Cn1nc(C(=O)NCc2ccc(C#N)cc2)c2c1C(=O)N(CC1(S(=O)(=O)N3CCNCC3)CC1)CC2 [Example 133, N-(4-Cyanobenzyl)-1-methyl-7-oxo-6-((1-(piperazin-1-ylsulfonyl)cyclopropyl)methyl)-4,5,6,7-tetrahydro-1H-pyrazolo[3,4-c]pyridine-3-carboxamide]",258 nM
4,"Cn1nc(C(=O)NCc2ccc(C#N)cc2)c2c1C(=O)N(CC1(S(=O)(=O)NCCCN)CC1)CC2 [Example 134, 6-((1-(N-(3-Aminopropyl)sulfamoyl)cyclopropyl)methyl)-N-(4-cyanobenzyl)-1-methyl-7-oxo-4,5,6,7-tetrahydro-1H-pyrazolo[3,4-c]pyridine-3-carboxamide]",282 nM
5,"Cn1nc(C(=O)NCc2ccc(C#N)cc2)c2c1C(=O)N(CC1(S(=O)(=O)NCCN)CC1)CC2 [Example 135, 6-((1-(N-(2-Aminoethyl)sulfamoyl)cyclopropyl)methyl)-N-(4-cyanobenzyl)-1-methyl-7-oxo-4,5,6,7-tetrahydro-1H-pyrazolo[3,4-c]pyridine-3-carboxamide]",1090 nM
6,"CN1CCN(S(=O)(=O)C2(CN3CCc4c(C(=O)NCc5ccc(C#N)cc5)nn(C)c4C3=O)CC2)CC1 [Example 136, N-(4-Cyanobenzyl)-1-methyl-6-((1-((4-methylpiperazin-1-yl)sulfonyl)cyclopropyl)methyl)-7-oxo-4,5,6,7-tetrahydro-1H-pyrazolo[3,4-c]pyridine-3-carboxamide]",243 nM
7,"Cn1nc(C(=O)NCc2ccc(C#N)cc2)c2c1C(=O)N(CC1(S(=O)(=O)NC3CCNCC3)CC1)CC2 [Example 137, N-(4-Cyanobenzyl)-1-methyl-7-oxo-6-((1-(N-(piperidin-4-yl)sulfamoyl)cyclopropyl)methyl)-4,5,6,7-tetrahydro-1H-pyrazolo[3,4-c]pyridine-3-carboxamide]",691 nM
8,"Cn1nc(C(=O)NCc2ccc(C#N)cc2)c2c1C(=O)N(CC1(S(=O)(=O)N3CCC(N)CC3)CC1)CC2 [Example 138, 6-((1-((4-Aminopiperidin-1-yl)sulfonyl)cyclopropyl)methyl)-N-(4-cyanobenzyl)-1-methyl-7-oxo-4,5,6,7-tetrahydro-1H-pyrazolo[3,4-c]pyridine-3-carboxamide]",326 nM
9,"Cn1nc(C(=O)NCc2ccc(C#N)cc2)c2c1C(=O)N(CC1(S(=O)(=O)N3C[C@@H](N)[C@H](O)C3)CC1)CC2 [Example 139, 6-((1-(((3R,4R)-3-Amino-4-hydroxypyrrolidin-1-yl)sulfonyl)cyclopropyl)methyl)-N-(4-cyanobenzyl)-1-methyl-7-oxo-4,5,6,7-tetrahydro-1H-pyrazolo[3,4-c]pyridine-3-carboxamide]",143 nM
10,"Cn1nc(C(=O)NCc2ccc(C#N)cc2)c2c1C(=O)N(CC1(S(=O)(=O)N3C[C@H](N)[C@@H](O)C3)CC1)CC2 [Example 140, 6-((1-(((3S,4S)-3-Amino-4-hydroxypyrrolidin-1-yl)sulfonyl)cyclopropyl)methyl)-N-(4-cyanobenzyl)-1-methyl-7-oxo-4,5,6,7-tetrahydro-1H-pyrazolo[3,4-c]pyridine-3-carboxamide]",147 nM
11,"Cn1nc(C(=O)NCc2ccc(C#N)cc2)c2c1C(=O)N(CC1(S(=O)(=O)N3CC[C@@H](N)C3)CC1)CC2 [Example 141, (R)-6-((1-((3-Aminopyrrolidin-1-yl)sulfonyl)cyclopropyl)methyl)-N-(4-cyanobenzyl)-1-methyl-7-oxo-4,5,6,7-tetrahydro-1H-pyrazolo[3,4-c]pyridine-3-carboxamide]",192 nM
12,"Cn1nc(C(=O)NCc2ccc(C#N)cc2)c2c1C(=O)N(CC1(S(=O)(=O)N3CC[C@H](N)C3)CC1)CC2 [Example 142, (S)-6-((1-((3-Aminopyrrolidin-1-yl)sulfonyl)cyclopropyl)methyl)-N-(4-cyanobenzyl)-1-methyl-7-oxo-4,5,6,7-tetrahydro-1H-pyrazolo[3,4-c]pyridine-3-carboxamide]",268 nM
13,"Cn1nc(C(=O)NCc2ccc(Cl)cc2)c2c1C(=O)N(CC1(S(=O)(=O)NCCO)CC1)CC2 [Example 143, N-(4-Chlorobenzyl)-6-((1-(N-(2-hydroxyethyl)sulfamoyl)cyclopropyl)methyl)-1-methyl-7-oxo-4,5,6,7-tetrahydro-1H-pyrazolo[3,4-c]pyridine-3-carboxamide]",344 nM
14,"CN(CCO)S(=O)(=O)C1(CN2CCc3c(C(=O)NCc4ccc(Cl)cc4)nn(C)c3C2=O)CC1 [Example 144, N-(4-Chlorobenzyl)-6-((1-(N-(2-hydroxyethyl)-N-methylsulfamoyl)cyclopropyl)methyl)-1-methyl-7-oxo-4,5,6,7-tetrahydro-1H-pyrazolo[3,4-c]pyridine-3-carboxamide]",67 nM
15,"Cn1nc(C(=O)NCc2ccc(C#N)cc2)c2c1C(=O)N(CC1(S(=O)(=O)NCCO)CC1)CC2 [Example 145, N-(4-Cyanobenzyl)-6-((1-(N-(2-hydroxyethyl)sulfamoyl)cyclopropyl)methyl)-1-methyl-7-oxo-4,5,6,7-tetrahydro-1H-pyrazolo[3,4-c]pyridine-3-carboxamide]",237 nM
16,"CN(CCO)S(=O)(=O)C1(CN2CCc3c(C(=O)NCc4ccc(C#N)cc4)nn(C)c3C2=O)CC1 [Example 146, N-(4-Cyanobenzyl)-6-((1-(N-(2-hydroxyethyl)-N-methylsulfamoyl)cyclopropyl)methyl)-1-methyl-7-oxo-4,5,6,7-tetrahydro-1H-pyrazolo[3,4-c]pyridine-3-carboxamide]",74 nM
17,"CN(C(CO)CO)S(=O)(=O)C1(CN2CCc3c(C(=O)NCc4ccc(C#N)cc4)nn(C)c3C2=O)CC1 [Example 147, N-(4-Cyanobenzyl)-6-((1-(N-(1,3-dihydroxypropan-2-yl)-N-methylsulfamoyl)cyclopropyl)methyl)-1-methyl-7-oxo-4,5,6,7-tetrahydro-1H-pyrazolo[3,4-c]pyridine-3-carboxamide]",644 nM
18,"Cn1nc(C(=O)NCc2ccc(Cl)cc2)c2c1C(=O)N(CC1(S(=O)(=O)NC(C)(C)CO)CC1)CC2 [Example 148, N-(4-Chlorobenzyl)-6-((1-(N-(1-hydroxy-2-methylpropan-2-yl)sulfamoyl)cyclopropyl)methyl)-1-methyl-7-oxo-4,5,6,7-tetrahydro-1H-pyrazolo[3,4-c]pyridine-3-carboxamide]",155 nM
19,"Cn1nc(C(=O)NCc2ccc(C#N)cc2)c2c1C(=O)N(CC1(S(=O)(=O)NC(C)(C)CO)CC1)CC2 [Example 149, N-(4-Cyanobenzyl)-6-((1-(N-(1-hydroxy-2-methylpropan-2-yl)sulfamoyl)cyclopropyl)methyl)-1-methyl-7-oxo-4,5,6,7-tetrahydro-1H-pyrazolo[3,4-c]pyridine-3-carboxamide]",161 nM

# From US20250353820A1, “ANTIVIRAL PYRAZOLOPYRIDINONE COMPOUNDS” (Novartis AG, priority 2019, published 2025)
